Data taken from patent US9243227B2, “Cytotoxic T lymphocyte” (Mie University, priority 2004, dated 2016).

What was measured:
[1] = test system: human bulk CTLs sensitized with mRNA-introduced autologous CD4+ PHA blast cells; assay: IFN-γ ELISPOT assay (human) with peptide-pulsed T2A24 cells; format: cell-based
Procedure: On the 0th day, PHA (trade name: HA15, manufactured by Murex S.A.) was added to the medium in each well of the plate at a final concentration of 10 μg/milliliter. On the 3rd day, half amount of the medium was exchanged with the above medium containing IL-2 (20 U/milliliter) and IL-7 (40 ng/milliliter). Exchange of the medium was repeated every 3 days, whereby activated CD4-positive cells were obtained. The mRNA was introduced by electroporation into the activated CD4-positive cells at 14 to 28 days after culture was initiated. The resulting cells were used below as antigen-presenting cells.
MACS CD8 Microbeads (trade name, manufactured by Miltenyi Biotec) were used, to separate CD8+ T cells from PBMC. The number 5×10^5 cells of CD8+ T cells thus obtained were stimulated with radiation (30 Gy)-irradiated 1×10^5 mRNA-introduced CD4+ PHA blast cells in a 96-well round plate (manufactured by Nunc Corporation). After 7 days, the CD8+ T cells were stimulated again with radiation (30 Gy)-irradiated 1×10^5 mRNA-introduced CD4+ PHA blast cells, and then cultured in an IL-2 (20 IU/milliliter)-containing RPMI1640 medium for 7 days.
To amplify the sensitized CD8+ T cell group containing the antigen-specific CTLs, autologous LCLs (5×10^6 cells) into which the target antigen mRNA was introduced, autologous PBMCs (2.5×10^7 cells), and IL-2 (20 IU/milliliter) were added to the sensitized CD8+ T cell group. The resulting mixture was cultured in the absence of anti-CD3 antibody in a 25-milliliter flask (manufactured by Corning Incorporated).
A 96-well nitrocellulose ELISPOT plate (trade name: MAHA 54510, manufactured by Millipore Corporation) was coated by overnight incubation at 4° C. with 2 μg/milliliter antihuman IFN-γ mAb (trade name: 1-D1K). Each well was washed with PBS, and then blocked by incubation at 37° C. for 2 hours with RPMI1640 medium containing 10 wt % human AB serum. Effector cells (2×10^4 cells/well) and peptide-pulsed T2A24 cells (5×10^4 cells/well) were seeded to each well. […] Then, the plate was dried and spots were counted.

[2] = test system: CD8+ cells from HLA-A2402-positive healthy normal volunteers; assay: In vitro induction of human CTLs using CD8− PBMC pulsed with a peptide; format: cell-based; settings: one stimulation with CD8-negative PBMC pulsed with 10 μM peptide; 10 days after mixed lymphocyte reaction in vitro
Procedure: The number 1×10^7 of CD8-negative PBMC were pulsed with 10 μM peptide by incubation at room temperature for 1 hour and at 37° C. in 5% CO2 for 1 hour, in 200 μl RPMI1640 medium containing 25 mM Hepes, 10 wt % inactivated human AB-positive serum, 2 mM L-glutamine, 100 U/milliliter penicillin, and 100 μg/milliliter streptomycin. The resulting cells were used as antigen-presenting cells. The number 5×10^5 of CD8+ T cells that were separated were then stimulated by incubation for from 10 to 12 days with 1×10^6 cells of the peptide-pulsed CD8− PBMC. On Days 1, 4 and 7, half amount of the medium was exchanged with fresh one, and human IL-2 (20 IU/milliliter) and IL-7 (50 ng/milliliter) were added thereto. Culturing for induction was conducted in 200 μl RPMI1640 medium (containing 25 mM Hepes, 10 wt % inactivated human AB serum, 2 mM L-glutamine, 100 U/milliliter penicillin, 100 μg/milliliter streptomycin). […]
In staining, sensitized CD8+ T cells were reacted with 20 μg/milliliter tetramer at 37° C. for 30 minutes, and then reacted with a tricolor anti-CD8 monoclonal antibody (trade name, Caltag Laboratories, Burlingame, Calif., USA) on ice for 15 minutes. After washing, the stained cells were analyzed by flow cytometry (trade name: FACSCalibur, manufactured by Becton Dickinson, and Company). […]

[3] = test system: CD8-positive cells derived from immunized HHDA2402+/−β2m−/− mice; assay: IFN-gamma ELISPOT assay (mice), gene gun-immunized HLA-A2402 transgenic mice; format: cell-based, mouse; settings: HHDA2402 mice immunized twice by gene gun with plasmid of the parent antigen; CD8-negative cells pulsed with peptide as target cells; FIG. 1A-1C
Procedure: A DNA construct (HHDA2402) containing an HLA-A2402 leader sequence, human β2 microglobulin, HLA-A2402 α1 and α2 domains, an H-2D^b α3 transmembrane domain, and a cytoplasm domain was constructed. The resulting construct was cloned into an expression vector pcDNA 3.1 (manufactured by Invitrogen Corporation). The HHDA2402 construct (4 kb SalI-NotI fragment) was injected into fertilized eggs of C57BL/6 mice, to give HHDA2402-expressing mice. Then, the […] mice were bred with β2m−/− mice (manufactured by The Jackson Laboratory). The resulting HHDA2402+/−β2 m+/− were bred with β2m−/− mice to give HHDA2402+/−β2m−/− mice (referred to hereinafter as “HHDA2402 mice”).
Using Helios Gene Gun System (trade name, manufactured by Bio-Rad Laboratories, Inc.), gold particles coated with plasmid DNA were administered endoabdominally at a helium pressure of from 350 to 400 psi into HHDA2402 mice (6-to 8-week-old, female). The gold particles were prepared according to a manufacturer's manual. After 2 weeks, booster administration was carried out. After 1 week, spleen cells were collected.
One week after the final immunization, MACS system (trade name, manufactured by Mitlenyi Biotec) using CD8 alpha (Lyt 2) microbeads was used, to select CD8-positive T cells. The purity of the resulting T cell fraction analyzed by flow cytometry was 95% or more.
(§1) A 96-well nitrocellulose ELISPOT plate (trade name: MAHA 54510, manufactured by Millipore Corporation) was incubated overnight with 2 μg/milliliter anti-mouse IFN-gamma mAb (trade name: clone R4-6A2, manufactured by PharMingen Company) at 4° C., to coat the plate. Each well was washed with phosphate buffered physiologic saline (PBS). The well after washing was blocked by incubation at 37° C. for 2 hours in FCS-containing RPMI1640 medium.
Fresh CD8-positive cells (1×10^5 cells/well) derived from the immunized mice and CD8-negative cells (1×10^6 cells/well) pulsed with various peptides were seeded to each well and regulated so as to have a final volume of 200 μl. Then, the cells were cultured at 37° C. for 22 hours. Thereafter, the cells were washed sufficiently with PBS containing 0.05 wt % Tween™ 20 (referred to as “PBS-Tween”). Two hundreds microliters of 1.25 μg/milliliter biotinylated anti-mouse IFN-gamma mAb (trade name, manufactured by PharMingen Company) was added to the cells after washing, and the cells were then cultured overnight at 4° C. The cells thus obtained were washed with PBS-Tween. One hundred microliters of 1 μg/milliliter streptavidin-alkaline phosphatase conjugate (trade name, manufactured by Mabtech Ltd.) was added to the cells after washing. Thereafter, the resulting mixture was incubated at room temperature for 90 minutes, to carry out reaction. The resulting product was washed with PBS-Tween and then stained with an alkaline phosphatase conjugate substrate kit (trade name, manufactured by Bio-Rad Laboratories, Inc.). Thereafter, the product after staining was washed with distilled water to terminate the reaction. Then, the plate was dried and spots were counted.
HHDA2402 mice were immunized with an expression plasmid carrying EB virus-derived EBNA 3A gene by a gene gun. After immunized twice, spleen-derived CD8+ T cells were prepared. CD8-negative cells pulsed with the EBNA 3A246-254 peptide were used as target cells, to carry out ELISPOT assay. […]

[4] = test system: CD8-positive cells of wild-type C57BL6 mice; assay: IFN-gamma ELISPOT assay, same experiment in wild-type mice; format: cell-based, mouse; settings: same experiment as in HHDA2402 mice
Procedure: as §1
Fresh CD8-positive cells (1×10^5 cells/well) derived from the immunized mice and CD8-negative cells (1×10^6 cells/well) pulsed with various peptides were seeded to each well and regulated so as to have a final volume of 200 μl. Then, the cells were cultured at 37° C. for 22 hours. Thereafter, the cells were washed sufficiently with PBS containing 0.05 wt % Tween™ 20 (referred to as “PBS-Tween”). Two hundreds microliters of 1.25 μg/milliliter biotinylated anti-mouse IFN-gamma mAb (trade name, manufactured by PharMingen Company) was added to the cells after washing, and the cells were then cultured overnight at 4° C. The cells thus obtained were washed with PBS-Tween. One hundred microliters of 1 μg/milliliter streptavidin-alkaline phosphatase conjugate (trade name, manufactured by Mabtech Ltd.) was added to the cells after washing. […] Then, the plate was dried and spots were counted. […]

LYATVIHDI (listed as Homo sapiens) [SAGE715-723]
IFN-γ release in ELISPOT with peptide-pulsed T2A24 as target cell ([1]; T2A24 pulsed with SAGE715-723, control HER263-71, FIG. 4C): IFN-γ was released | induction of peptide-specific bulk CTLs, IFN-γ ELISPOT ([1]; stimulation twice with CD4+ blast cells with truncated SAGE mRNA, T2A24 pulsed with peptide vs control peptide, FIG. 4A): specific bulk CTLs were inducted | HLA-A2402+ healthy normal humans in whom SAGE715-723 HLA-A24 tetramer-positive T cells were detected [2]: three out of six | peptide-specific CTL response in ELISPOT assay (immunogenicity of peptide) [3]: positive

LYKPDSNEF (listed as Homo sapiens) [SAGE776-784]
peptide-specific CTL response in ELISPOT assay (immunogenicity of peptide) [3]: positive | peptide-specific CTL response in ELISPOT assay [4]: positive

NYKRCFPVI (listed as Homo sapiens) [MAGE-A4143-151]
IFN-γ ELISPOT reaction to T2A24 cells pulsed with peptide ([1]; MAGE-A4-specific bulk CTLs amplified with mRNA-introduced autologous LCL, autologous PBMC and IL-2, FIG. 2 panel B): reaction specific | peptide-specific CTL response in ELISPOT assay (immunogenicity of peptide) [3]: positive

RYSIFFDYM (Epstein-Barr virus) [EBNA3A246-254, reference compound]
peptide-specific CTL response in ELISPOT assay (immunogenicity of peptide) [3]: peptide-specific CTLs were detected

VYGEPRKLL (listed as Homo sapiens) [MAGE-A4239-247]
peptide-specific CTL response in ELISPOT assay (immunogenicity of peptide) [3]: positive | peptide-specific CTL response in ELISPOT assay [4]: positive
